From patent US20130316958A1 (University of Southern California, priority 2010, published 2013)
Residues, ends and D or L forms follow the SMILES beside them. No end group written: not given here. *: point of attachment. Cbz = O=C(OCc1ccccc1)*; CH2F = FC*

Assays:
human Beclin1 = assay: Beclin1 siRNA knockdown in BCBL1 cells; assay type: cell-based
Method: (§1) All siRNAs were produced by Dharmacon Research. siRNAs specific for human Beclin1 (5′[…]3′) and a nonspecific scrambled control siRNA were transfected using DharmaFect reagent (Dharmacon) according to the manufacturer's instructions. At 48-72 hr post-transfection, cells were analyzed for autophagy. Trypan blue staining and a Beckman Coulter Z2 Particle Count and Size analyzer were used to determine cell death (as a percentage) at day 5.

[1] = system: KSHV-infected BCBL1 cells; assay: Rapamycin- or zVAD-induced growth suppression and autophagic death; assay type: cell-based
Method: (§2) The effect of vFLIP on autophagy was tested in a KSHV-infected BCBL1 cell line. TREX-BCBL-Vector and TREX-BCBL-vFLIP cells were treated with rapamycin or left untreated for 6 days in the presence of doxycycline and subjected to scanning EM, to examine the morphologies of over 100 dead cells and quantify cell death for apoptosis and autophagic death, or subjected to PI staining and cell cycle analysis.
as §1

Atg3 = biological target: T1, Atg3 (Homo sapiens, UniProt Q9NT62); assay: GST pulldown of KSHV vFLIP α-helix fragments and deletion mutants; assay type: binding; details: GST fusions or deletion mutants in HEK293T
T1 construct: GFP (alternative construct GFP-Atg3, not on the same molecule as GST); expressed in transfected cells; host or cells: HEK293T
T1 sequence (Q9NT62 whole entry, the tested form may be a part): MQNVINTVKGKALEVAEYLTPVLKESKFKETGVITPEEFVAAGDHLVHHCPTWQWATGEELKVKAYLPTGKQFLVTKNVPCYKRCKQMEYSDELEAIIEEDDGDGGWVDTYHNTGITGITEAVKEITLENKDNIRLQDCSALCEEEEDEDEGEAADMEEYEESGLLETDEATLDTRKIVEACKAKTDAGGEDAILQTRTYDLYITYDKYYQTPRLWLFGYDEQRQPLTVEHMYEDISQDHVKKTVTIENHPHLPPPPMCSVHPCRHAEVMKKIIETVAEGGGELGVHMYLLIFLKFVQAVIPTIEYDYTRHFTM
Text: Due to the substantial similarities between DEDI and DED2, Atg3 bound each DED of KSHV vFLIP with a similar affinity. Structural analyses have shown that the DED1 and DED2 of KSHV vFLIP and MCV 159L contain six and five α-helixes, respectively. (Yang et al. (2005) Mol. Cell. 20:939-949); Bagneris et al. (2008) Mol. Cell. 30:620-631). To further define the Atg3 binding sequences, each DED of KSHV vFLIP was divided into small α-helix fragments based on the previous structural analysis and expressed as mammalian GST fusions. Truncated mutant constructs of KSHV-vFLIP and hATG3 were created by subcloning the PCR products of cDNA fragments containing each domain of the associated genes into pcDNA5/FRT/TO. HEK293T cells were transfected with mutant constructs for GST pulldown as described above, followed by immunoblotting with αV5. […] In contrast, vFLIP mutants carrying a loss of 14-3-3σ, IKKαβγ complex, or FADD interaction bound Atg3 and blocked rapamycin-induced autophagy as efficiently as wild-type vFLIP.

LC3-II in BCBL1 cells = assay: Immunoblotting with αLC3 of peptide-treated cells; assay type: cell-based; details: immunoblot
Text: (§3) The vFLIP α2 (10 aa) and α4 (12 aa) peptides that independently bound Atg3 at high efficiency were fused with the HIV-1 TAT protein transduction domain for intracellular delivery (Gump and Dowdy (2007) Trends Mol. Med. 13:443-448) and tested for their potential effects on autophagy induction. The K-α2 and K-α4 peptides contained KSHV vFLIP aa20-29 and aa128-139 regions, respectively, as retro-inverso versions to circumvent the proteolytic degradation. Mutant peptides K-α2m and K-α4m were also included, which replaced the hydrophobic core residues of the K-α2 (L21F22L23) and K-α4 (F130L-WVY139) peptides with alanines, as well as the C-α2 and C-α4 peptides containing the cFLIPs regions aa19-28 and aa128-139, respectively. At 12 hr post-transfection with GFP-LC3, KSHV-infected TREX-BCBL-Vector and TREX-BCBL-vFLIP cells were incubated with various concentrations of the peptides or rapamycin for an additional 12 hr, followed by an assessment of the GFP-LC3 puncta and cell death. […] Peptide-treated TREX-BCBL-Vector and TREX-BCBL-vFLIP cells were subjected to immunoblotting with αLC3 and aactin.

[2] = system: virus-associated or non-virus-associated lymphoma cells; assay: Cell-type specificity of vFLIP peptide-induced death; assay type: cell-based; details: 30 or 50 μM peptide overnight
Method: The potential cell-type specificity of the activity of the vFLIP peptides was assessed by treating virus-associated or non-virus-associated lymphoma cells with 30 or 50 μM of the K-α2 or the K-α4 peptide overnight and subsequently assessing death levels.

[3] = system: KSHV-infected BCBL1 cells; assay: Combinatory treatment with rapamycin and peptide; assay type: cell-based; details: 25 nM rapamycin and 20 μM peptide, versus rapamycin or peptide alone
[4] = system: KSHV-infected TREX-BCBL-Vector cells; assay: GFP-LC3 puncta autophagy assessment after peptide treatment; assay type: cell-based; details: 30 or 50 μM peptide, 12 hr
Text: as §3

ALL cells = assay: Tumor cell viability by trypan blue exclusion, ALL cells; assay type: cell-based; details: for anticancer activity in ALL cell lines: BV-173 and SUP-B15, FIG. 5
Method: (§4) Tumor cells were treated with peptides at various concentrations for 12 hours and their viability measured by trypan blue exclusion, followed by analyses using the Beckman Coulter Z2 Particle Count and Size Analyzer (BC Z2 CS Analyzer). A minimum of 100 cells per sample using triplicate samples was counted per condition per experiment.

[5] = system: mTor kinase activity in BCBL1 cells; assay: Immunoblot of p70S6K and ribosomal protein S6 phosphorylation; assay type: cell-based; details: treated BCBL1 cells
Method: Levels of phosphorylation of p70S6K and ribosomal protein S6 in BCBL1 cells were evaluated by immunoblotting with α-p70S6K, aphospho-specific p70S6K, aphospho-specific S6, or αactin.

LNCap cells = assay: Tumor cell viability, LNCap prostate cancer line; assay type: cell-based
Method: as §4

HCT116 = assay: Tumor cell viability, HCT116 colon cancer line; assay type: cell-based; details: FIG. 7C
Method: as §4

[6] = system: human T cell lymphoblast-like cells, Jurket T; assay: Tumor cell viability by trypan blue exclusion, Jurket T; assay type: cell-based; details: FIG. 6A
Method: as §4

293T cells = assay: Tumor cell viability, 293T cells; assay type: cell-based; details: FIG. 7B
Method: as §4

[7] = system: human erythromyeloblastoid leukemia cells, K562; assay: Tumor cell viability by trypan blue exclusion, K562; assay type: cell-based; details: FIG. 6B
Method: as §4

NIH3T3 cells = assay: TNFα-induced apoptosis by PI staining and flow cytometry; assay type: cell-based; details: CHX and TNF-α 12 hr
Text: To determine the effects of the interactions of vFLIP with FADD, IKKαβγ, and 14-3-3σ on anti-autophagy activity, NIH3T3 cells stably expressing various vFLIP mutants were constructed: m14-3-3σ, which lacks 14-3-3σ-binding; mTRAF2, which lacks TRAF2-binding (Guasparri et al. (2006) EMBO Rep. 7:114-119); 67AAA and 58AAA, which have reduced NF-κB activation (Matta and Chaudhary (2004) Proc. Natl. Acad. Sci. USA 101:9399-9404); and mFADD, which lacks FADD-binding (Yang et al. (2005) Mol. Cell. 20:939-949). These cells were treated with either cyclohexamide (CHX) alone or CHX and TNF-α for 12 hr or with 2 μM rapamycin for 3 hr. Propidium iodide (PI) staining and flow cytometry analysis were performed to determine apoptosis levels. Alternatively, NIH3T3 cells containing vector, KSHV vFLIP, or its mutants were transfected with an NF-κB-luciferase reporter construct and a control renilla luciferase plasmid, pRL-SV40 (Promega). At 48 hr post-transfection, luciferase activity was measured with a luminometer using a dual luciferase assay kit (Promega) and normalized with renilla luciferase activity to determine transfection efficiency. GFP-LC3 puncta were detected using an inverted fluorescence microscope and the autophagy levels quantified as means (±SD) of the results from three independent experiments.

TREX-BCBL cells = assay: vFLIP expression in KSHV-infected BCBL1 cells: autophagy, growth suppression and death; assay type: cell-based; details: ectopic expression in BCBL1 cells
Method: To investigate whether vFLIP expression suppresses autophagy in virus-infected cells, a KSHV-infected BCBL1 cell line was constructed (TREX-BCBL) in which a Flag-tagged KSHV-vFLIP gene was integrated into the chromosomal DNA under the control of a tetracycline-inducible promoter. (Nakamura et al. (2003) J. Virol. 77:4205-4220). At 12-16 hr post-transfection with GFP-LC3, TREX-BCBL-Vector and TREX-BCBL-vFLIP cells were treated with Doxycycline for 24 hr, followed by incubation with 2 μM rapamycin for an additional 12 hr. The detection of GFP-LC3 and autophagy levels was performed as described above, vFLIP expression was detected by IB with anti-Flag, and autophagosomes were visualized by scanning EM (scale bar=50 nm). Treatment of these cells with doxycycline strongly activated Flag-vFLIP expression.
as §2, §1

Q: What does the source list for “5′AAGAUCCUGGACCGUGUCACC3′ [Beclin1 siRNA]”?
A: endogenous Beclin1 expression (human Beclin1): significantly reduced endogenous Beclin1 expression; effect on rapamycin-induced autophagic death (human Beclin1; cell death at day 5): attenuated rapamycin-induced autophagic death

Q: How did the “dead cells with features characteristic of autophagic death (EM)” value ([1]; rapamycin, 6 days, over 100 dead cells examined) turn out when CO[C@H]1C[C@@H]2CC[C@@H](C)[C@@](O)(O2)C(=O)C(=O)N2CCCC[C@H]2C(=O)O[C@H]([C@H](C)C[C@@H]2CC[C@@H](O)[C@H](OC)C2)CC(=O)[C@H](C)/C=C(\C)[C@@H](O)[C@@H](OC)C(=O)[C@H](C)C[C@H](C)/C=C/C=C/C=C/1C [rapamycin] was run?
A: Its value is “approximately 60%”.

Q: For COC(=O)CC(NC(=O)C(C)NC(=O)C(NC(=O)OCc1ccccc1)C(C)C)C(=O)CF (stereo not drawn) [zVAD, benzyloxycarbonylvalyl-alanyl-aspartic acid (O-methyl)-fluoro-methylketone] (Cbz-Val-Ala-Asp(OMe)-CH2F; configuration not given here), which “growth suppression and cell death” value ([1]; BCBL1 cells) is on record?
A: The value was “effectively induced growth suppression and death of BCBL1 cells”.

Q: “EVVLFLLNVF (also: GST fusion) [DED1α2 helix, α2 region of KSHV vFLIP aa 20-29, tested as mammalian GST fusion]” was tested. Which “Atg3 binding (GST pulldown)” value (Atg3) did it give?
A: Its value is “individually sufficient for Atg3 binding”.

Q: Which “Atg3 binding (GST pulldown)” value (Atg3) does the source give for QTFLHWVYCMEN [DED2 α4 helix] here?
A: Its value is “individually sufficient for Atg3 binding”.

Q: Which results are given for “RRRQRRKKRGY-G-FVNLLFLVVE (RRRQRRKKRGYGFVNLLFLVVE; not fully specified) [K-α2, HIV-1 TAT-fused retro-inverso peptide containing KSHV vFLIP aa20-29]”?
A: amount of LC3-II (LC3-II in BCBL1 cells): A high amount of LC3-II was detected; cell death by lymphoma cell type [2]: primarily targeted KSHV-infected PEL cells (BCBL1, BCP-1, and BC-3), but not KSHV/EBV-coinfected PEL cells (BC-1 and JSC-1), EBV-immortalized Bob-B cells, nor non-virus-associated lymphoma cells (BJAB, K562 and Jurkat-T); growth suppression and cell death in combination with rapamycin [3]: marked increase of growth suppression and cell death; autophagy induction (GFP-LC3 puncta) [4]: able to induce autophagy in TREX-BCBL-Vector cells as effectively as 2 μM rapamycin; anticancer activity in ALL cell lines (ALL cells): significant anticancer activities; phosphorylation of p70S6K [5]: marginal reduction; phosphorylation of ribosomal protein S6 [5]: remained unaffected

Q: What does the source list for “RRRQRRKKRGY-G-NEMCYVWHLFTQ (RRRQRRKKRGYGNEMCYVWHLFTQ; not fully specified) [K-α4, HIV-1 TAT-fused retro-inverso peptide containing KSHV vFLIP aa128-139]”?
A: amount of LC3-II (LC3-II in BCBL1 cells): A high amount of LC3-II was detected; cell death by lymphoma cell type [2]: broadly targeted most lymphoma cells, resulting in varying degrees of cell death; growth suppression and cell death in combination with rapamycin [3]: marked increase of growth suppression and cell death; autophagy induction (GFP-LC3 puncta) [4]: able to induce autophagy in TREX-BCBL-Vector cells as effectively as 2 μM rapamycin; anticancer activity in LNCap cells (LNCap cells; FIG. 7A): anticancer activities; anticancer activity in LNCaP cells (cell count and relative luminescence) (LNCap cells; FIG. 8): confirms the anticancer activities; anticancer activity in HCT116 (HCT116): anticancer activities; cell death in Jurket T [6]: induced cell death; anticancer activity in ALL cell lines (ALL cells): significant anticancer activities; cell death in ALL cells (ALL cells; TAT linked peptide, 30 μM and 50 μM, compared to TAT alone, FIG. 1): induced cell deaths in various ALL cells; anticancer activity in 293T cells (293T cells): anticancer activities; cell death in K562 [7]: induced cell death; phosphorylation of p70S6K [5]: marginal reduction; phosphorylation of ribosomal protein S6 [5]: remained unaffected

B1: mFADD (protein, UniProt Q61160 1-205, looked up)
FAS-associated death domain …: MDPFLVLLHSLSGSLSGNDLMELKFLCRERVSKRKLERVQSGLDLFTVLLEQNDLERGHTGLLRELLASLRRHDLLQRLDDFEAGTATAAPPGEADLQVAFDIVCDNVGRDWKRLARELKVSEAKMDGIEEKYPRSLSERVRESLKVWKNAEKKNASVAGLVKALRTCRLNLVADLVEEAQESVSKSENMSPVLRDSTVSSSETP
Q: How did the “block of TNFα-induced apoptosis” value (NIH3T3 cells) turn out when B1 was run?
A: The value was “either poorly blocked TNFα-induced apoptosis or no longer block it at all”.

Q: And the “block of rapamycin- or zVAD-induced growth suppression and autophagic death” value (TREX-BCBL cells)?
A: The value was “almost completely blocked”.
